{
  "source": "paper PMC10082830",
  "about": "“A tailored tetravalent peptide displays dual functions to inhibit amyloid β production and aggregation” (Communications Biology, 2023)",
  "key": {"[1]": {"tested_on": "γ-cleavage of NotchΔE in 7WD10-NotchΔE cells", "experiment": "γ-Secretase assay in cells (NotchΔE cleavage)", "format": "cell-based, Chinese Hamster", "conditions": "48 h, cell lysates, western blot with anti-Myc antibody; DAPT 10 µM", "method": "(§1) 7WD10 cells were treated with vehicle control or LME-tet at the indicated concentrations for 48 h. Cell lysates were analyzed by western blot. b Effect of LME-tet on production of extracellular sAPPα and sAPPβ Schematic showing α- and β-cleavage sites (top). 7WD10 cells were treated as in (a) and sAPPα and sAPPβ in culture medium were analyzed by western blot (bottom left and right panels, respectively). a, b APP and sAPPα were detected using anti-APP antibody 6E10, and sAPPβ was detected using anti-sAPPβ antibody. Data are graphed as the percentage of the control value, showing the mean ± SE; n = 3–4. Significance vs. vehicle was calculated by ANOVA, followed by one-sided Dunnett’s test; *P < 0.05, **P < 0.01, ***P < 0.001. c Effect of LME-tet on β-cleavage of β-galactoside α-2,6- sialyltransferase 1 (St6gal1) and γ-cleavage of NotchΔE. 7WD10-NotchΔE-St6gal1 cells were treated with LME-tet at the indicated concentrations and β-secretase inhibitor II (βi; 10 µM) for 48 h; culture medium was analyzed by western blot using anti-St6gal1 antibody (left panel). 7WD10-NotchΔE cells were treated with LME-tet at the indicated concentrations and γ-secretase inhibitor DAPT (γi; 10 µM) for 48 h; cell lysates were analyzed by western blot using anti-Myc antibody (right panel). […] Aβ33-FLAG (left) and Aβ (right) were measured by western blot using anti-Aβ antibody 82E1. […]"}, "Aβ40": {"target": "T1, Aβ40 (Homo sapiens, UniProt P05067)", "T1 construct": "purchased Peptide Institute", "T1 sequence (P05067 672-711 limits assumed)": "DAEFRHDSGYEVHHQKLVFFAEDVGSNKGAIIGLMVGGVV", "experiment": "ELISA binding between Aβ and LME peptides", "conditions": "Aβ40, n = 4, read-out: apparent Kd", "method": "(§2) The indicated amounts of LME-tet (8.3 µM) or LME-mono (33 µM) were applied onto each well of a regular 96-well ELISA plate (Thermo Fisher Scientific) and incubated overnight for 24 h. After blocking, the plate was incubated with various concentrations of Aβ1–28, Aβ40, or Aβ42 (Peptide Institute) for 2 h at room temperature. Bound Aβ was detected using mouse monoclonal anti-human Aβ antibody 82E1 (Immuno-Biological Laboratories Co., Ltd.) and HRP-conjugated horse anti-mouse IgG antibody (Cell Signaling Technology)."}, "Aβ42": {"target": "T2, Aβ42 (Homo sapiens, UniProt P05067)", "T2 construct": "purchased Peptide Institute", "T2 sequence (P05067 672-713 limits assumed)": "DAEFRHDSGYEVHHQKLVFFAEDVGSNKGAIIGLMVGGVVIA", "experiment": "ELISA binding between Aβ and LME peptides", "conditions": "Aβ42, n = 3, read-out: apparent Kd", "method": "as §2"}, "7WD10 cells": {"tested_on": "7WD10 cells", "experiment": "Incorporation of biotinylated tetravalent peptides into 7WD10 cells, confocal microscopy", "format": "cell-based, Chinese Hamster", "conditions": "biotinylated peptide 50 µM, 37 °C, 1 h, Alexa Fluor 488-streptavidin", "method": "Supplementary Fig. 10: Efficient incorporation of […] into cells.\n7WD10 cells were cultured at 37° C for 1 h in the presence of biotinylated LME-tet or PME-tet\n(50 µM). Biotinylated peptide was detected using Alexa Fluor 488-conjugated streptavidin.\nFluorescence images were obtained using confocal laser scanning microscopy to assess the\nincorporation of tetravalent peptides into cells. The scale bars indicate 10 µm."}, "[2]": {"tested_on": "β-cleavage of St6gal1 in 7WD10-NotchΔE-St6gal1 cells", "experiment": "β-Secretase assay in cells (St6gal1 cleavage)", "format": "cell-based, Chinese Hamster", "conditions": "48 h, culture medium, western blot; β-secretase inhibitor II 10 µM", "method": "as §1"}},
  "note": "Bridge positions count the residues as written; N and C are the ends. Square brackets hold non-standard residues; d marks the D form. Peptide text beside a SMILES is read from it. I, II: the chains in the order shown. * marks the point of attachment. Cbz = O=C(OCc1ccccc1)*; Ahx = NCCCCCC(=O)O",
  "data": [
    {"smiles": "C[C@H](NC(=O)Cc1cc(F)cc(F)c1)C(=O)N[C@H](C(=O)OC(C)(C)C)c1ccccc1", "note": "[DAPT]", "values": [
      {"measurement": "production of NICD", "setting": "[1]", "value": "efficiently inhibits"}
    ]},
    {"smiles": "CSCC[C@H](NC(=O)[C@H](CCCNC(=N)N)NC(=O)[C@H](CC(C)C)NC(=O)[C@H](CCCCN)NC(=O)[C@@H]1CCCN1)C(=O)N[C@@H](CCCCN)C(=O)N[C@@H](CCC(=O)O)C(=O)NCCCCCC(=O)NCCCC[C@H](NC(=O)CCCCCNC(=O)[C@H](CCC(=O)O)NC(=O)[C@H](CCCCN)NC(=O)[C@H](CCSC)NC(=O)[C@H](CCCNC(=N)N)NC(=O)[C@H](CC(C)C)NC(=O)[C@H](CCCCN)NC(=O)[C@@H]1CCCN1)C(=O)NCCCC[C@H](NC(=O)[C@H](CCCCNC(=O)CCCCCNC(=O)[C@H](CCC(=O)O)NC(=O)[C@H](CCCCN)NC(=O)[C@H](CCSC)NC(=O)[C@H](CCCNC(=N)N)NC(=O)[C@H](CC(C)C)NC(=O)[C@H](CCCCN)NC(=O)[C@@H]1CCCN1)NC(=O)CCCCCNC(=O)[C@H](CCC(=O)O)NC(=O)[C@H](CCCCN)NC(=O)[C@H](CCSC)NC(=O)[C@H](CCCNC(=N)N)NC(=O)[C@H](CC(C)C)NC(=O)[C@H](CCCCN)NC(=O)[C@@H]1CCCN1)C(N)=O", "note": "[LME-tet] (I: H-PKLRMKE[Ahx]KK-NH2 / II: H-PKLRMKE[Ahx]K / III: H-PKLRMKE[Ahx] / IV: H-PKLRMKE[Ahx]; amide I:9-IV:C, I:10-II:C, II:9-III:C)", "values": [
      {"measurement": "Kd", "setting": "Aβ40", "value": 2700, "unit": "nM"},
      {"measurement": "Kd", "setting": "Aβ42", "value": 200, "unit": "nM"},
      {"measurement": "efficiency of incorporation into cells", "setting": "7WD10 cells", "value": "much higher efficacy than PME-tet"}
    ]},
    {"smiles": "CC(C)C[C@@H](C=O)NC(=O)[C@H](CC(C)C)NC(=O)[C@@H](NC(=O)OCc1ccccc1)C(C)C", "note": "[β-secretase inhibitor II] (Cbz-Val-Leu-Leu-aldehyde)", "values": [
      {"measurement": "production of extracellular St6gal1 fragment", "setting": "[2]", "value": "completely suppressed"}
    ]}
  ]
}
